From PubChem BioAssay AID1745844 (Carcinogenic Potency Database (CPDB), 2022)
Calls of active or inactive are those of the source. No rule for the calls is given here.

Test system: rodent lifetime carcinogenesis bioassay, tumor incidence TD50
Test: chronic cancer bioassays in animals – CPDB, compiled studies (AID 1745844)

FC(F)(Cl)Cl
TD50 (mouse, strain Swiss, females, inhaled, site: all sites, lesion: leukemia, dosed 78 weeks, study length 104 weeks): 4100 mg/kg/day (inactive) | TD50 (mouse, strain Swiss, females, inhaled, site: any site (literature study), lesion: malignant tumor, dosed 78 weeks, study length 104 weeks): 3320 mg/kg/day (inactive) | TD50 (mouse, strain Swiss, females, inhaled, site: any site (literature study), lesion: several types, types named in the paper, dosed 78 weeks, study length 104 weeks): 59000 mg/kg/day (inactive) | TD50 (mouse, strain Swiss, females, inhaled, site: lung, lesion: adenoma, dosed 78 weeks, study length 104 weeks): 91900 mg/kg/day (inactive) | TD50 (mouse, strain Swiss, males, inhaled, site: any site (literature study), lesion: malignant tumor, dosed 78 weeks, study length 104 weeks): 33100 mg/kg/day (inactive) | TD50 (mouse, strain Swiss, males, inhaled, site: any site (literature study), lesion: several types, types named in the paper, dosed 78 weeks, study length 104 weeks): 12100 mg/kg/day (inactive) | TD50 (mouse, strain Swiss, males, inhaled, site: lung, lesion: adenoma, dosed 78 weeks, study length 104 weeks): 41900 mg/kg/day (inactive) | carcinogen call (rat, strain Sprague-Dawley, females, inhaled, site: any site (literature study), lesion: malignant tumor, dosed 104 weeks, study length 104 weeks): negative (inactive) | carcinogen call (rat, strain Sprague-Dawley, females, inhaled, site: any site (literature study), lesion: several types, types named in the paper, dosed 104 weeks, study length 104 weeks): negative (inactive) | TD50 (rat, strain Sprague-Dawley, females, inhaled, site: liver, lesion: angiosarcoma, dosed 104 weeks, study length 104 weeks): 31300 mg/kg/day (inactive) | TD50 (rat, strain Sprague-Dawley, males, inhaled, site: adrenal gland, lesion: pheochromocytoma, dosed 104 weeks, study length 104 weeks): 1320 mg/kg/day (inactive) | carcinogen call (rat, strain Sprague-Dawley, males, inhaled, site: any site (literature study), lesion: malignant tumor, dosed 104 weeks, study length 104 weeks): negative (inactive) | TD50 (rat, strain Sprague-Dawley, males, inhaled, site: any site (literature study), lesion: several types, types named in the paper, dosed 104 weeks, study length 104 weeks): 555 mg/kg/day (inactive) | carcinogen call (rat, strain Sprague-Dawley, males, inhaled, site: liver, lesion: angiosarcoma, dosed 104 weeks, study length 104 weeks): negative (inactive)

CC=NN(C)C=O
TD50 (mouse, strain Swiss albino, females, by gavage, site: clitoral gland, lesion: several types, types named in the paper, dosed 52 weeks, study length 109 weeks): 38.2 mg/kg/day | TD50 (mouse, strain Swiss albino, females, by gavage, site: clitoral gland, lesion: squamous-cell carcinoma, dosed 52 weeks, study length 109 weeks): 46.4 mg/kg/day | TD50 (mouse, strain Swiss albino, females, by gavage, site: forestomach, lesion: several types, types named in the paper, dosed 52 weeks, study length 109 weeks): 28 mg/kg/day | TD50 (mouse, strain Swiss albino, females, by gavage, site: forestomach, lesion: squamous-cell papilloma, dosed 52 weeks, study length 109 weeks): 32.4 mg/kg/day | TD50 (mouse, strain Swiss albino, females, by gavage, site: liver, lesion: hepatoma, dosed 52 weeks, study length 109 weeks): 28 mg/kg/day (inactive) | TD50 (mouse, strain Swiss albino, females, by gavage, site: lung, lesion: adenocarcinoma, dosed 52 weeks, study length 109 weeks): 19.6 mg/kg/day | TD50 (mouse, strain Swiss albino, females, by gavage, site: lung, lesion: adenoma, dosed 52 weeks, study length 109 weeks): 7.37 mg/kg/day | TD50 (mouse, strain Swiss albino, females, by gavage, site: lung, lesion: several types, types named in the paper, dosed 52 weeks, study length 109 weeks): 5.66 mg/kg/day | TD50 (mouse, strain Swiss albino, males, by gavage, site: liver, lesion: hepatoma, dosed 52 weeks, study length 79 weeks): 11 mg/kg/day (inactive) | TD50 (mouse, strain Swiss albino, males, by gavage, site: lung, lesion: adenoma, dosed 52 weeks, study length 79 weeks): 13.7 mg/kg/day | TD50 (mouse, strain Swiss albino, males, by gavage, site: lung, lesion: several types, types named in the paper, dosed 52 weeks, study length 79 weeks): 14.4 mg/kg/day | TD50 (mouse, strain Swiss albino, males, by gavage, site: preputial gland, lesion: fibrosarcoma, dosed 52 weeks, study length 79 weeks): 21.3 mg/kg/day | TD50 (mouse, strain Swiss albino, males, by gavage, site: preputial gland, lesion: several types, types named in the paper, dosed 52 weeks, study length 79 weeks): 1.61 mg/kg/day | TD50 (mouse, strain Swiss albino, males, by gavage, site: preputial gland, lesion: squamous-cell carcinoma, dosed 52 weeks, study length 79 weeks): 2.17 mg/kg/day

CN(C)C(=O)Nc1cccc(C(F)(F)F)c1
TD50 (mouse, strain B6C3F1, females, in feed, site: any site (literature study), lesion: several types, types named in the paper, dosed 103 weeks, study length 103 weeks): 369 mg/kg/day (inactive) | TD50 (mouse, strain B6C3F1, females, in feed, site: liver, lesion: hepatocellular adenoma + hepatocellular carcinoma + neoplastic nodule, dosed 103 weeks, study length 103 weeks): 1230 mg/kg/day | TD50 (mouse, strain B6C3F1, males, in feed, site: any site (literature study), lesion: several types, types named in the paper, dosed 103 weeks, study length 103 weeks): 265 mg/kg/day | TD50 (mouse, strain B6C3F1, males, in feed, site: liver, lesion: hepatocellular adenoma + hepatocellular carcinoma + neoplastic nodule, dosed 103 weeks, study length 103 weeks): 229 mg/kg/day | TD50 (mouse, strain B6C3F1, males, in feed, site: liver, lesion: hepatocellular adenoma + hepatocellular carcinoma, dosed 103 weeks, study length 103 weeks): 229 mg/kg/day | TD50 (mouse, strain B6C3F1, males, in feed, site: lung, lesion: alveolar/bronchiolar adenoma + alveolar/bronchiolar carcinoma, dosed 103 weeks, study length 103 weeks): 1420 mg/kg/day | carcinogen call (rat, strain Fischer 344, females, in feed, site: any site (literature study), lesion: several types, types named in the paper, dosed 103 weeks, study length 104 weeks): negative (inactive) | TD50 (rat, strain Fischer 344, males, in feed, site: liver, lesion: hepatocellular adenoma + hepatocellular carcinoma + neoplastic nodule, dosed 103 weeks, study length 104 weeks): 55.4 mg/kg/day | TD50 (rat, strain Fischer 344, males, in feed, site: liver, lesion: neoplastic nodule, dosed 103 weeks, study length 104 weeks): 55.4 mg/kg/day (inactive)

CCCCCN(CCCCC)N=O
TD50 (rat, strain Fischer 344, females, in feed, site: liver, lesion: hepatocellular carcinoma, dosed 99 weeks, study length 104 weeks): 7.57 mg/kg/day | TD50 (rat, strain Fischer 344, males, in feed, site: liver, lesion: hepatocellular carcinoma, dosed 89 weeks, study length 104 weeks): 2.75 mg/kg/day

CC(O)CN(CC(O)CO)N=O (stereo not drawn)
TD50 (hamster, strain Syrian Golden, females, by gavage, site: forestomach, lesion: several types, types named in the paper, dosed 41 weeks, study length 75 weeks): 1.59 mg/kg/day | TD50 (hamster, strain Syrian Golden, females, by gavage, site: forestomach, lesion: squamous-cell papilloma, dosed 41 weeks, study length 75 weeks): 1.59 mg/kg/day | TD50 (hamster, strain Syrian Golden, females, by gavage, site: liver, lesion: cholangioadenoma, dosed 41 weeks, study length 75 weeks): 32.6 mg/kg/day | TD50 (rat, strain Fischer 344, females, in drinking water, site: esophagus, lesion: carcinoma, dosed 37 weeks, study length 85 weeks): 0.117 mg/kg/day | TD50 (rat, strain Fischer 344, females, in drinking water, site: esophagus, lesion: several types, types named in the paper, dosed 37 weeks, study length 85 weeks): 0.0535 mg/kg/day | TD50 (rat, strain Fischer 344, females, in drinking water, site: forestomach, lesion: several types, types named in the paper, dosed 37 weeks, study length 85 weeks): 0.178 mg/kg/day | TD50 (rat, strain Fischer 344, females, in drinking water, site: liver, lesion: hepatocellular carcinoma, dosed 37 weeks, study length 85 weeks): 2.4 mg/kg/day | TD50 (rat, strain Fischer 344, females, in drinking water, site: tongue, lesion: several types, types named in the paper, dosed 37 weeks, study length 85 weeks): 0.0888 mg/kg/day | TD50 (rat, strain Fischer 344, females, in drinking water, site: tongue, lesion: squamous-cell carcinoma, dosed 37 weeks, study length 85 weeks): 0.241 mg/kg/day
